Results taken from patent publication US4963570A, “1-(acetylaminophenyl)-2-aminopropanone derivatives and pharmaceutical compositions thereof” (Laboratoire L. Lafon, priority 1983, dated 1990).
Counter-ions that a name gives are not always drawn.

Tests used:
[1] = acute toxicity, intraperitoneal (lethal doses); assay type: in vivo, mouse; settings: mouse, in vivo, ip; male mice
Procedure: (§1) By intraperitoneal administration to male mice, the LD-30 (lethal dose for 30% of the animals tested) is of the order of 128 mg/kg and the LD-50 is of the order of about 200 mg/kg.

[2] = system: male mice; experiment: acute toxicity, intraperitoneal (lethal doses); assay type: in vivo, mouse; settings: i.p.
Procedure: as §1

[3] = system: dogs; experiment: cardiovascular action in anesthetized dogs; assay type: in vivo, dog
Procedure: Four dogs (average weight: 13.8 kg), anesthetized with nembutal, receive CRL 41 220 by intraduodenal administration at successive doses of 0.1 mg/kg, 0.5 mg/kg, 1 mg/kg, 2.5 mg/kg, 5 mg/kg and 10 mg/kg. The blood pressure, the heart beat, the flow rate through the femoral artery, the flow rate through the vertebral artery and the rectal and/or skin temperature are measured and the coloration of the skin and the bile (collected by catheterization of the bile duct after ligature of the cystic duct) is observed.

[4] = system: spleen cells expressing a direct IgM antibody response; experiment: test for cells forming lysis areas (PFC IgM, Cunningham); assay type: in vivo, mouse; settings: dose not stated
Procedure: Immunological assays were carried out in order to point out the interest of CRL 41 240 as an immunomodulating agent. Specifically, the test used was the so-called test for cells forming lysis areas, described by A. J. […] et al. ("Further improvements in the plaque technique for detecting simple antibody forming cells"), Immunology 14, pages 599-601 (1968).
The test for cells forming lysis areas (or PFC IgM) explores the humoral immunity. Four days after immunization with a T-dependent antigen (in this case red blood corpuscles of sheep), the spleen cells expressing a direct IgM antibody response are counted. The mice used for this purpose are conventional female OF1 mice devoid of specific pathogenic organisms, weighing from 20 to 30 g and divided up into a control group of 14 animals and groups each containing 7 animals per dose and per product to be studied, administered orally on the same day as the antigen. An activity index I is calculated for each dose of product according to the following equation: [formula]
This test is performed at least twice for each dose of test product [C(control amimals), 0.01, 0.1, 10 and 100 mg/kg] and a statistical study is undertaken using the Student t test after variance analysis on the number of lyses per spleen.

[5] = system: delayed hypersensitivity to the red blood corpuscles of sheep; experiment: delayed hypersensitivity to the red blood corpuscles of sheep (Miller); assay type: in vivo; settings: dose not stated
[6] = system: LEWIS' carcinoma; experiment: LEWIS' carcinoma in mice; assay type: in vivo, mouse
Procedure: a. animals: consanguineous female mice (C57 BL6), b. infecting cells: 10^5 cells injected subcutaneously into the back of the animals, c. monitoring of the tumor growth by measurement of the tumor twice a week, d. evaluation of the pulmonary metastases after fixation of the lungs of the dead animals in BOUIN's fixative.
Using the same procedures, the association of CRL 41 220 with 150 mg/kg of cyclophosphamide gives the results collated in Table II below.

[7] = system: man; experiment: clinical trials; assay type: in vivo, human; settings: man, oral, 250 to 500 mg
[8] = system: CNS; experiment: overall neuropsychopharmacological (CNS) profile; assay type: in vivo, mouse; rat; settings: i.p., mice and rats; dose not stated
Procedure: The neuropsychopharmacological study of CRL 41 219 was carried out as indicated above for CRL 41 224.
The neuropsychopharmacological study of CRL 41 220 was carried out in accordance with the procedures given above for CRL 41 224.

[9] = system: immunological properties; experiment: immunological properties, overall; assay type: in vivo; settings: dose not stated
Description: The present 1-(acetylaminophenyl)-2-aminopropanone derivatives are useful in therapy. They all act on the CNS, more precisely as antidepressants. They have a stimulant or excitant component in their neuropsychopharmacological profile.

[10] = dogs, after accumulated 19.1 mg/kg intraduodenal
[11] = dogs, after intraduodenal CRL 41 220
[12] = CRL 41 220 2 mg/kg + cyclophosphamide 150 mg/kg

CC(=O)Nc1c(Cl)cc(C(=O)C(C)NC(C)C)cc1Cl (stereo not shown) [CRL 41 220, 1-(4-acetylamino-3,5-dichlorophenyl)-2-isopropylaminopropanone hydrochloride]
LD50 [1]: ~500 mg/kg | LD-0 (maximum non-lethal dose) [2]: greater than 128 mg/kg | LD-30 [2]: about 250 mg/kg | respiratory stimulation ([3]; 4 dogs, intraduodenal): induces respiratory stimulation in the 4 dogs | diastolic blood pressure before isoprenaline [3, 10]: 112 mm Hg | diastolic blood pressure with 10 μg/kg of isoprenaline [3, 10]: 47 mm Hg | effect of isoprenaline on the diastolic blood pressure after CRL 41 220 [3, 10]: very slightly modified as regards the diastolic blood pressure | effect of isoprenaline on the heart beat after CRL 41 220 [3, 10]: not modified as regards the heart beat | heart beat before isoprenaline [3, 10]: 221 beats/minute | heart beat with 10 μg/kg of isoprenaline [3, 10]: 275 beats/minute | effect of 1 mg/kg of propanolol at the end of the test [3, 11]: suppresses all the effects of CRL 41 220 | systolic blood pressure before noradrenaline [3, 11]: 202 mm Hg | systolic blood pressure with 2 μg/kg of noradrenaline [3, 11]: 272 mm Hg | hypertension induced by noradrenaline ([3]; dogs, after intraduodenal CRL 41 220, noradrenaline 2 μg/kg): hypertension induced by noradrenaline is reduced | overall cardiovascular action ([3]; dogs, intraduodenal): acts as a hypotensive agent | rectal and skin temperatures ([3]; dogs, intraduodenal): increases the rectal and skin temperatures | femoral flow rate ([3]; dogs, intraduodenal, 1 mg/kg): increases the vertebral flow rate as from a dose of 0.5 mg/kg, the femoral flow rate | heart beat ([3]; dogs, intraduodenal, 2.5 mg/kg): increases the vertebral flow rate as from a dose of 0.5 mg/kg, the femoral flow rate at a dose of 1 mg/kg and the heart beat | hypotensive effect ([3]; dogs, intraduodenal, 10 mg/kg): hypotensive effect | vertebral flow rate ([3]; dogs, intraduodenal, as from 0.5 mg/kg): increases the vertebral flow rate | immunomodulating activity, test for cells forming lysis areas [4]: immunomodulating stimulant capacity | immunomodulating activity, delayed hypersensitivity [5]: immunomodulating stimulant capacity | animals treated still being alive several weeks after the experiment [6, 12]: all | protective action in respect of LEWIS' carcinoma [6, 12]: unquestionable protective | differences compared with cyclophosphamide used by itself ([6]; CRL 41 220 5 mg/kg + cyclophosphamide 150 mg/kg): substantially few | toxicity of the association compared with cyclophosphamide used by itself ([6]; CRL 41 220 100 mg/kg + cyclophosphamide 150 mg/kg): increase in the toxicity | activity in LEWIS' carcinoma, used by itself ([6]; female C57 BL6 mice, alone): inactive | activity in the study of LEWIS' carcinoma, overall statement ([6]; mice): active | clinical result: circulatory disorders and insufficient immunoreaction (recurrent herpes, rheumatoid polyarthritis, severe measles) [7]: good results | overall action on the CNS [8]: antidepressant and stimulant effects | immunological properties, overall [9]: beneficial immunomodulating effects
